Measurements: ChEMBL document CHEMBL4138287, “Total Synthesis of the Flavonoid Natural Product Houttuynoid A” (J Nat Prod, 2018)

Tested on: Herpesviridae sp.
Experiment: Antiviral activity against Herpes simplex virus infected in African green monkey Vero cells measured at 24 hrs post infection at 2 mins interval for 25 times
Type: functional, organism-based

SMILES | IC50 [µM]
CCCCCCCCCc1cc2c(-c3oc4cc(O)cc(O)c4c(=O)c3O[C@@H]3O[C@H](CO)[C@H](O)[C@H](O)[C@H]3O)ccc(O)c2o1 | 57.7
CCCCCCCCCc1oc2c(O)ccc(-c3oc4cc(O)cc(O)c4c(=O)c3O[C@@H]3O[C@H](CO)[C@H](O)[C@H](O)[C@H]3O)c2c1C=O | 23.5
